Data taken from the supplement of paper PMC8183993.
Counter-ions that a name gives are not always drawn.

Tests used:
Conditions in all cases: 24 h
U2OS [1] = assay: mean HPG incorporation (global translation) relative to DMSO (% of DMSO); higher = more protein synthesis
Method: (§1)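 Validation screen in U2OS cells: hits tested at 1, 3 and 10 uM for 24 h in duplicate plates. Translation was read by OPP incorporation (1 h pulse) and HPG incorporation (30 min in methionine-free medium), quantified by high-throughput microscopy alongside nuclei counts. All values are normalised to DMSO (= 100).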

U2OS [2] = assay: mean OPP incorporation (global translation) relative to DMSO (% of DMSO); higher = more protein synthesis
Method: as §1

U2OS [3] = assay: nuclei count in OPP assay relative to DMSO (% of DMSO); higher = more viable cells
Method: as §1

U2OS [4] = assay: nuclei count in HPG assay relative to DMSO (% of DMSO); higher = more viable cells
Method: as §1

Cn1cc(-c2ccc3ncc(Cc4ccc5ncccc5c4)n3n2)cn1 [NVP-BVU972]
mean HPG incorporation (U2OS [1]; 1 µM): 114
mean HPG incorporation (U2OS [1]; 3 µM): 132
mean HPG incorporation (U2OS [1]; 10 µM): 138
mean OPP incorporation (U2OS [2]; 1 µM): 91
mean OPP incorporation (U2OS [2]; 3 µM): 107
mean OPP incorporation (U2OS [2]; 10 µM): 124
nuclei count in OPP assay (U2OS [3]; 1 µM): 104
nuclei count in OPP assay (U2OS [3]; 3 µM): 79.7
nuclei count in OPP assay (U2OS [3]; 10 µM): 89.8
nuclei count in HPG assay (U2OS [4]; 1 µM): 107
nuclei count in HPG assay (U2OS [4]; 3 µM): 85.5
nuclei count in HPG assay (U2OS [4]; 10 µM): 88.5

Cc1ccc(NC(=O)c2ccc(CN3CCN(C)CC3)cc2)cc1Nc1nccc(-c2cccnc2)n1 [Imatinib (STI571)]
mean HPG incorporation (U2OS [1]; 1 µM): 91.5
mean HPG incorporation (U2OS [1]; 3 µM): 111
mean HPG incorporation (U2OS [1]; 10 µM): 121
mean OPP incorporation (U2OS [2]; 1 µM): 113
mean OPP incorporation (U2OS [2]; 3 µM): 122
mean OPP incorporation (U2OS [2]; 10 µM): 131
nuclei count in OPP assay (U2OS [3]; 1 µM): 97.6
nuclei count in OPP assay (U2OS [3]; 3 µM): 97.7
nuclei count in OPP assay (U2OS [3]; 10 µM): 95.9
nuclei count in HPG assay (U2OS [4]; 1 µM): 102
nuclei count in HPG assay (U2OS [4]; 3 µM): 97.7
nuclei count in HPG assay (U2OS [4]; 10 µM): 92.4

C[C@]12CC[C@@H]3c4ccc(O)cc4C[C@@H](CCCCCCCCC[S+]([O-])CCCC(F)(F)C(F)(F)F)[C@H]3[C@@H]1CC[C@@H]2O (stereo partly drawn) [Fulvestrant]
mean HPG incorporation (U2OS [1]; 1 µM): 118
mean HPG incorporation (U2OS [1]; 3 µM): 125
mean HPG incorporation (U2OS [1]; 10 µM): 115
mean OPP incorporation (U2OS [2]; 1 µM): 115
mean OPP incorporation (U2OS [2]; 3 µM): 123
mean OPP incorporation (U2OS [2]; 10 µM): 115
nuclei count in OPP assay (U2OS [3]; 1 µM): 98.7
nuclei count in OPP assay (U2OS [3]; 3 µM): 96.4
nuclei count in OPP assay (U2OS [3]; 10 µM): 93.8
nuclei count in HPG assay (U2OS [4]; 1 µM): 97
nuclei count in HPG assay (U2OS [4]; 3 µM): 101
nuclei count in HPG assay (U2OS [4]; 10 µM): 89.1

CC1=C(/C=C/C(C)=C/C=C/C(C)=C/C(=O)Nc2ccc(O)cc2)C(C)(C)CCC1 [Fenretinide]
mean HPG incorporation (U2OS [1]; 1 µM): 98.1
mean HPG incorporation (U2OS [1]; 3 µM): 93.5
mean HPG incorporation (U2OS [1]; 10 µM): 96.7
mean OPP incorporation (U2OS [2]; 1 µM): 107
mean OPP incorporation (U2OS [2]; 3 µM): 109
mean OPP incorporation (U2OS [2]; 10 µM): 117
nuclei count in OPP assay (U2OS [3]; 1 µM): 97.1
nuclei count in OPP assay (U2OS [3]; 3 µM): 96.5
nuclei count in OPP assay (U2OS [3]; 10 µM): 87.9
nuclei count in HPG assay (U2OS [4]; 1 µM): 102
nuclei count in HPG assay (U2OS [4]; 3 µM): 93.9
nuclei count in HPG assay (U2OS [4]; 10 µM): 86.7

O=C(Nc1ccc(OC(F)(F)F)cc1)c1sccc1NCc1ccnc2ccccc12 [OSI-930]
mean HPG incorporation (U2OS [1]; 1 µM): 93.9
mean HPG incorporation (U2OS [1]; 3 µM): 92.7
mean HPG incorporation (U2OS [1]; 10 µM): 64.2
mean OPP incorporation (U2OS [2]; 1 µM): 99.3
mean OPP incorporation (U2OS [2]; 3 µM): 101
mean OPP incorporation (U2OS [2]; 10 µM): 114
nuclei count in OPP assay (U2OS [3]; 1 µM): 98
nuclei count in OPP assay (U2OS [3]; 3 µM): 89.7
nuclei count in OPP assay (U2OS [3]; 10 µM): 91.2
nuclei count in HPG assay (U2OS [4]; 1 µM): 96.9
nuclei count in HPG assay (U2OS [4]; 3 µM): 98.1
nuclei count in HPG assay (U2OS [4]; 10 µM): 92

Nc1ccc(-c2cccc3c(=O)cc(N4CCOCC4)oc23)cc1 [PI 828]
mean HPG incorporation (U2OS [1]; 1 µM): 73.5
mean HPG incorporation (U2OS [1]; 3 µM): 64.3
mean HPG incorporation (U2OS [1]; 10 µM): 41.5
mean OPP incorporation (U2OS [2]; 1 µM): 92.1
mean OPP incorporation (U2OS [2]; 3 µM): 83.1
mean OPP incorporation (U2OS [2]; 10 µM): 54.1
nuclei count in OPP assay (U2OS [3]; 1 µM): 101
nuclei count in OPP assay (U2OS [3]; 3 µM): 89.8
nuclei count in OPP assay (U2OS [3]; 10 µM): 81.9
nuclei count in HPG assay (U2OS [4]; 1 µM): 108
nuclei count in HPG assay (U2OS [4]; 3 µM): 94.6
nuclei count in HPG assay (U2OS [4]; 10 µM): 85.2

COc1cc(C)c(/C=C/C(C)=C/C=C/C(C)=C/C(=O)O)c(C)c1C [Acitretin]
mean HPG incorporation (U2OS [1]; 1 µM): 99.8
mean HPG incorporation (U2OS [1]; 3 µM): 108
mean HPG incorporation (U2OS [1]; 10 µM): 87
mean OPP incorporation (U2OS [2]; 1 µM): 107
mean OPP incorporation (U2OS [2]; 3 µM): 109
mean OPP incorporation (U2OS [2]; 10 µM): 109
nuclei count in OPP assay (U2OS [3]; 1 µM): 91.4
nuclei count in OPP assay (U2OS [3]; 3 µM): 89.8
nuclei count in OPP assay (U2OS [3]; 10 µM): 94.2
nuclei count in HPG assay (U2OS [4]; 1 µM): 91.8
nuclei count in HPG assay (U2OS [4]; 3 µM): 95.3
nuclei count in HPG assay (U2OS [4]; 10 µM): 95.7

CCn1c(-c2nonc2N)nc2cnc(Oc3cccc(NC(=O)c4ccc(OCCN5CCOCC5)cc4)c3)cc21
mean HPG incorporation (U2OS [1]; 1 µM): 73.1
mean HPG incorporation (U2OS [1]; 3 µM): 71.8
mean HPG incorporation (U2OS [1]; 10 µM): 76.4
mean OPP incorporation (U2OS [2]; 1 µM): 97.1
mean OPP incorporation (U2OS [2]; 3 µM): 97.5
mean OPP incorporation (U2OS [2]; 10 µM): 97.5
nuclei count in OPP assay (U2OS [3]; 1 µM): 102
nuclei count in OPP assay (U2OS [3]; 3 µM): 101
nuclei count in OPP assay (U2OS [3]; 10 µM): 82.6
nuclei count in HPG assay (U2OS [4]; 1 µM): 99
nuclei count in HPG assay (U2OS [4]; 3 µM): 96.3
nuclei count in HPG assay (U2OS [4]; 10 µM): 76.4

C[C@@H]1CN(CC(=O)Nc2ccc3c(c2)Cc2cccc(-c4cc(=O)cc(N5CCOCC5)o4)c2S3)C[C@H](C)O1
mean HPG incorporation (U2OS [1]; 1 µM): 70.2
mean HPG incorporation (U2OS [1]; 3 µM): 64.9
mean HPG incorporation (U2OS [1]; 10 µM): 55
mean OPP incorporation (U2OS [2]; 1 µM): 103
mean OPP incorporation (U2OS [2]; 3 µM): 108
mean OPP incorporation (U2OS [2]; 10 µM): 102
nuclei count in OPP assay (U2OS [3]; 1 µM): 96.9
nuclei count in OPP assay (U2OS [3]; 3 µM): 88
nuclei count in OPP assay (U2OS [3]; 10 µM): 92.3
nuclei count in HPG assay (U2OS [4]; 1 µM): 98.7
nuclei count in HPG assay (U2OS [4]; 3 µM): 89.5
nuclei count in HPG assay (U2OS [4]; 10 µM): 81.6

CC(=O)O[C@@H]1C[C@H]2C(C)(C)C(=O)C=C[C@]2(C)[C@H]2CC[C@@]3(C)[C@H](c4ccoc4)OC(=O)[C@H]4O[C@]43[C@@]21C [Gedunin]
mean HPG incorporation (U2OS [1]; 1 µM): 91.2
mean HPG incorporation (U2OS [1]; 3 µM): 88.7
mean HPG incorporation (U2OS [1]; 10 µM): 66.3
mean OPP incorporation (U2OS [2]; 1 µM): 112
mean OPP incorporation (U2OS [2]; 3 µM): 114
mean OPP incorporation (U2OS [2]; 10 µM): 115
nuclei count in OPP assay (U2OS [3]; 1 µM): 97.7
nuclei count in OPP assay (U2OS [3]; 3 µM): 96.4
nuclei count in OPP assay (U2OS [3]; 10 µM): 95.9
nuclei count in HPG assay (U2OS [4]; 1 µM): 103
nuclei count in HPG assay (U2OS [4]; 3 µM): 101
nuclei count in HPG assay (U2OS [4]; 10 µM): 94.7

O=[N+]([O-])c1ccccc1S(=O)(=O)NCC1CCC(CNCC2CCc3ccccc3C2)CC1 (stereo not drawn) [NTNCB hydrochloride]
mean HPG incorporation (U2OS [1]; 1 µM): 98
mean HPG incorporation (U2OS [1]; 3 µM): 104
mean HPG incorporation (U2OS [1]; 10 µM): 56.8
mean OPP incorporation (U2OS [2]; 1 µM): 106
mean OPP incorporation (U2OS [2]; 3 µM): 115
mean OPP incorporation (U2OS [2]; 10 µM): 110
nuclei count in OPP assay (U2OS [3]; 1 µM): 101
nuclei count in OPP assay (U2OS [3]; 3 µM): 98.3
nuclei count in OPP assay (U2OS [3]; 10 µM): 74.4
nuclei count in HPG assay (U2OS [4]; 1 µM): 95.8
nuclei count in HPG assay (U2OS [4]; 3 µM): 90.7
nuclei count in HPG assay (U2OS [4]; 10 µM): 87.6

COc1ccccc1N1CCN(CCN2C(=O)c3ccccc3C(C)(C)C2=O)CC1 [ARC 239 dihydrochloride]
mean HPG incorporation (U2OS [1]; 1 µM): 102
mean HPG incorporation (U2OS [1]; 3 µM): 116
mean HPG incorporation (U2OS [1]; 10 µM): 122
mean OPP incorporation (U2OS [2]; 1 µM): 100
mean OPP incorporation (U2OS [2]; 3 µM): 117
mean OPP incorporation (U2OS [2]; 10 µM): 120
nuclei count in OPP assay (U2OS [3]; 1 µM): 98.8
nuclei count in OPP assay (U2OS [3]; 3 µM): 101
nuclei count in OPP assay (U2OS [3]; 10 µM): 100
nuclei count in HPG assay (U2OS [4]; 1 µM): 106
nuclei count in HPG assay (U2OS [4]; 3 µM): 101
nuclei count in HPG assay (U2OS [4]; 10 µM): 98.3

COc1cc(COc2cc(N)c(Cl)cc2C(=O)CCC2CCN(CCNS(C)(=O)=O)CC2)cc(OC)c1
mean HPG incorporation (U2OS [1]; 1 µM): 82.2
mean HPG incorporation (U2OS [1]; 3 µM): 83.4
mean HPG incorporation (U2OS [1]; 10 µM): 58.1
mean OPP incorporation (U2OS [2]; 1 µM): 121
mean OPP incorporation (U2OS [2]; 3 µM): 122
mean OPP incorporation (U2OS [2]; 10 µM): 120
nuclei count in OPP assay (U2OS [3]; 1 µM): 95.1
nuclei count in OPP assay (U2OS [3]; 3 µM): 97.5
nuclei count in OPP assay (U2OS [3]; 10 µM): 79.8
nuclei count in HPG assay (U2OS [4]; 1 µM): 100
nuclei count in HPG assay (U2OS [4]; 3 µM): 106
nuclei count in HPG assay (U2OS [4]; 10 µM): 90.1

N#CC(c1ccnc(NCCc2cccnc2)n1)c1nc2ccccc2s1 (stereo not drawn) [JNK Inhibitor V]
mean HPG incorporation (U2OS [1]; 1 µM): 122
mean HPG incorporation (U2OS [1]; 3 µM): 133
mean HPG incorporation (U2OS [1]; 10 µM): 85.5
mean OPP incorporation (U2OS [2]; 1 µM): 122
mean OPP incorporation (U2OS [2]; 3 µM): 127
mean OPP incorporation (U2OS [2]; 10 µM): 110
nuclei count in OPP assay (U2OS [3]; 1 µM): 104
nuclei count in OPP assay (U2OS [3]; 3 µM): 94.1
nuclei count in OPP assay (U2OS [3]; 10 µM): 79.9
nuclei count in HPG assay (U2OS [4]; 1 µM): 105
nuclei count in HPG assay (U2OS [4]; 3 µM): 93.9
nuclei count in HPG assay (U2OS [4]; 10 µM): 77
